Assay [1] deals with NMDARs. Put plainly: whole-cell patch clamp, NMDA-evoked currents in cultured mouse cortical neurons. The assay is classed as cell-based. Here is the method:
NMDA (200 μM) alone, NMDA plus aqueous Salvia miltiorrhiza extract (100 μl in 10 ml Hanks solution) and NMDA plus 20 nM tanshinone IIA were applied for about 3 seconds (black bars) in the continuous presence of glycine (10 μM) and absence of Mg^2+.
The ordinate indicates the percent steady-state block of currents evoked by 200 μM NMDA plus 10 μM glycine in the absence of Mg^2+.
NMDA (100 μM) or increasing concentrations of NMDA (100 μM-1600 μM) plus tanshinone IIA (20 nM) were applied for about 3 seconds (indicated by the black bars) in the continuous presence of glycine (10 μM) and absence of Mg^2+,
I/V curves were constructed by subtracting the response in the presence of NMDA (200 μM) plus tanshinone from the control response during the application of NMDA alone for 2 seconds at membrane holding potentials from −60 mV to +60 mV. Data from 2 to 5 sweeps were averaged for each trace.
(§1) The whole-cell patch clamp technique was used in mouse cortical neuronal cultures in order to screen for NMDAR antagonists in Danshen, the root of Salvia milthiorriza Bunge. […] Tanshinones are plant-derived diterpenoid quinones.
The concentration dependence of the steady-state block of NMDA-induced currents was determined in order to obtain the dose/response curve of the NMDAR antagonist action of the tanshinones (FIG. 2). The data were fit according to a logistic equation and the concentration at which 50% of the NMDA-evoked response was blocked (IC50) was calculated from the equation.
Concentration-response curves were obtained in the presence of a saturating dose of tanshinone and increasing amounts of NMDA in cultured mouse cortical neurons (FIG. 3a).
The voltage-dependence of the inhibitory effects of the tanshinones was assessed by constructing current/voltage (I/V) plots in the presence or absence of the drugs (FIG. 3b).

Assay [2] addresses T1, recombinant NMDARs composed of NR1 and NR2D subunits (Homo sapiens, UniProt O15399+Q05586).
T1 construct: expressed in transfected cells; host or cells: HEK293, transiently transfected
The experiment in a line: NMDA-induced current in transiently transfected HEK293 cells expressing recombinant NR1/NR2D NMDARs. The assay is classed as cell-based. Particulars: for block of the NMDA-induced current, NR1/NR2D: 100 nM, co-application of NMDA and glycine, absence of Mg2+. The text has this:
(§2) This example also compared the blocking efficacy of the tanshinones in transiently transfected human embryonic kidney (HEK) 293 cells expressing recombinant NMDARs containing either the NR1/NR2B or NR1/NR2D subunit combinations.

In assay [3] the test system is AMPA receptors. Put plainly: whole-cell patch clamp, currents activated by AMPA in mouse cultured cortical neurons. The assay is classed as cell-based. Particulars: AMPA 10 μM; 100 nM compound.
Source text: as §1
(§3) The present example examined whether tanshinones inhibited currents of AMPA and GABAA receptors evoked by AMPA or GABA, respectively.

The subject of assay [4] is GABAA receptors. The experiment in a line: whole-cell patch clamp, currents activated by GABA in cultured cortical neurons. Conditions: GABA 20 μM; n=3. The assay is classed as cell-based, mouse.
Source text: as §1, §3
For orientation: The patch-clamp technique gives a direct electrical read-out from membranes.

Assay [5] has as its target T2, recombinant NMDARs composed of the NR1 and NR2B subunits (Homo sapiens, UniProt Q05586+Q13224).
T2 construct: expressed in transfected cells; host or cells: HEK293, transiently transfected
Put plainly: NMDA-induced current in transiently transfected HEK293 cells expressing recombinant NR1/NR2B NMDARs. The assay is classed as cell-based.
Source text: as §2

Assay [6] relates to central benzodiazepine receptors. Conditions: cited from earlier work.
[7] abbreviates: 200 μM NMDA plus 10 μM glycine, absence of Mg2+; 95% confidence interval given in brackets; read-out: IC50, steady-state block of NMDA-induced currents.
[8] abbreviates: I/V plots, holding potentials −60 mV to +60 mV.
Where [9] appears, read: purified tanshinones, patch-clamp assay (20 nM, FIG. 1d).

Read-outs that look alike come from different tables or passages of the source.

Usually IC50 stands for the concentration that gives 50% inhibition.

T1 sequence (O15399 28-1336, other chains not shown): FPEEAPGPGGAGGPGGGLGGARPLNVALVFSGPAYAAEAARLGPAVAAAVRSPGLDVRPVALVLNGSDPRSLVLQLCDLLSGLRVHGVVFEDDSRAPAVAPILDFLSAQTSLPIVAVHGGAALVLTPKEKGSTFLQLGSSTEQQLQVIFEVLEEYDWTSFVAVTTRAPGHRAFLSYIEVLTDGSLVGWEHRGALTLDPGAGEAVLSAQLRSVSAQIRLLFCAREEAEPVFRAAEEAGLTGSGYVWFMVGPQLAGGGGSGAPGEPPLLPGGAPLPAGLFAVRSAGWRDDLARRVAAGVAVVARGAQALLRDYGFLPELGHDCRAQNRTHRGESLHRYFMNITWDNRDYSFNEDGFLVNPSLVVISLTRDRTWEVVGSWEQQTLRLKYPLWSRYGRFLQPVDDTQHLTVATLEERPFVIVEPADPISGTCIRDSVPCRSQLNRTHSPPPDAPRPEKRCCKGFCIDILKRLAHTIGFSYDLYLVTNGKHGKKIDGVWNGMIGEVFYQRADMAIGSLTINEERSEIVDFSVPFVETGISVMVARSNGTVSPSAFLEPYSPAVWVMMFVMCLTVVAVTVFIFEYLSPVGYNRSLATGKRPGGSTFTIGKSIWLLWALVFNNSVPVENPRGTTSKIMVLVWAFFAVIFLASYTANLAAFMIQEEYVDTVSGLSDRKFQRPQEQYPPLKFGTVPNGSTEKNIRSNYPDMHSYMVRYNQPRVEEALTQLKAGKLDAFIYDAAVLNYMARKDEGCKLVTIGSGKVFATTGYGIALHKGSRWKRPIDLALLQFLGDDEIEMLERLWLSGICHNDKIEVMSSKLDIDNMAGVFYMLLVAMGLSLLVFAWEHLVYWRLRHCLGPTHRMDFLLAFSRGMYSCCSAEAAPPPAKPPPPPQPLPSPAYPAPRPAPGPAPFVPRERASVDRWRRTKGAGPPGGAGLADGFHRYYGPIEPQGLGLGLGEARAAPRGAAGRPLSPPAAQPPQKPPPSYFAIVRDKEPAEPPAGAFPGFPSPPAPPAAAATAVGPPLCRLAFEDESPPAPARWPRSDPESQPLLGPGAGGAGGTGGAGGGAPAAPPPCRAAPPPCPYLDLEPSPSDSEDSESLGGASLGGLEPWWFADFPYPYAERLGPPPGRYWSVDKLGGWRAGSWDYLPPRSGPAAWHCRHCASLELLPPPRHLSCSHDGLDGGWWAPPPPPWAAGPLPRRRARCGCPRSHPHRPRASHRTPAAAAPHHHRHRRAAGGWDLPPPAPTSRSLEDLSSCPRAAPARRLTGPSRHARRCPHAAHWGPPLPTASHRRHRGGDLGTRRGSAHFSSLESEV
T2 sequence (Q13224 27-1484, other chains not shown): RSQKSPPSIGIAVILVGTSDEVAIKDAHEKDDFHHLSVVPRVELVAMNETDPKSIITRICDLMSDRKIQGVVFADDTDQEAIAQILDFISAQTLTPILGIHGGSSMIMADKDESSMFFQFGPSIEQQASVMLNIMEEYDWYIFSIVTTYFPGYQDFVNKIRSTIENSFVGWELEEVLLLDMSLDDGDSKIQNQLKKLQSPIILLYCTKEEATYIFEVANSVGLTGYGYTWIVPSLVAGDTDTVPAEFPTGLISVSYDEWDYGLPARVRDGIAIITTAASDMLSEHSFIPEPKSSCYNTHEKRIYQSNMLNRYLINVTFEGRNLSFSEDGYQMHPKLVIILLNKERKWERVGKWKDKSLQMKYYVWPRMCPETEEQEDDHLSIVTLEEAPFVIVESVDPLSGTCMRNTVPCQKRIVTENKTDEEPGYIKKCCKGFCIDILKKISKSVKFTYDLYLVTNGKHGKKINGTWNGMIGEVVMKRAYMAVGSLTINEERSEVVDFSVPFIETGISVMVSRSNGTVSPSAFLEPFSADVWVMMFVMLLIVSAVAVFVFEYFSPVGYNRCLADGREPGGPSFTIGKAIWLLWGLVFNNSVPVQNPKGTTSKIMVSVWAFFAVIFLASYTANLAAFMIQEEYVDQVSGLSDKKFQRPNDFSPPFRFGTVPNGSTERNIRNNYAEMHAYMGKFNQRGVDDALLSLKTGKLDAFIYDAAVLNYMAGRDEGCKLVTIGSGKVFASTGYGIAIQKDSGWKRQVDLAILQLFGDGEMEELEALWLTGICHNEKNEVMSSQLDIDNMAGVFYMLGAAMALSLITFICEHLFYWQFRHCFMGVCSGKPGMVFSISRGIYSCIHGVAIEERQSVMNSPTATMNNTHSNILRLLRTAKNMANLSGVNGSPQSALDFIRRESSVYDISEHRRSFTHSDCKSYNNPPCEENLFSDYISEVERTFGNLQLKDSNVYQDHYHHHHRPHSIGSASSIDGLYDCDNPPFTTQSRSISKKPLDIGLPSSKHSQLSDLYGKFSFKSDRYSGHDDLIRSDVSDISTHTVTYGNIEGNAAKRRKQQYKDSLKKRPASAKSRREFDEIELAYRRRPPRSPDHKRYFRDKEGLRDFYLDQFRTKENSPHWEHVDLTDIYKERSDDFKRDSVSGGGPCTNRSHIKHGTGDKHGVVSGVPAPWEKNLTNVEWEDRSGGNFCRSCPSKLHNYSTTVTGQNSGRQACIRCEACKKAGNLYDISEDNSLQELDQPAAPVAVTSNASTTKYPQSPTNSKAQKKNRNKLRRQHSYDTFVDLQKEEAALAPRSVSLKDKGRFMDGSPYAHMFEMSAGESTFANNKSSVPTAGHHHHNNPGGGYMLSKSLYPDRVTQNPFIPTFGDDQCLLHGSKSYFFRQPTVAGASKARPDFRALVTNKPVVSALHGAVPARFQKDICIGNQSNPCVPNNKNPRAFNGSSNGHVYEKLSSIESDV

`Cc1coc2c1C(=O)C(=O)c1c-2ccc2c1CCCC2(C)CO` (stereo not drawn) [tanshinone IIB]: the IC50 in assay [1] (setting [7]) turned out to be 1.1 nM. For the same compound, the “voltage-dependence of inhibition of NMDA-induced whole-cell currents” value in assay [1] (setting [8]) is listed as “voltage-independent”. Moreover, the “inhibition of the NMDA-induced currents” value in assay [1] (setting [9]) is “strong, but readily reversible inhibition”. Moreover, the “block of the NMDA-induced current, NR1/NR2D” value (“block … NR1/NR2D” below) in assay [2] is given as 52±11%.

`Cc1coc2c1C(=O)C(=O)c1c-2ccc2c1CCCC2(C)C` [tanshinone IIA]: the IC50 in assay [1] (setting [7]) is 3.4 nM. Also, the “voltage-dependence of inhibition of NMDA-induced whole-cell currents” value in assay [1] (setting [8]) is on record as “voltage-independent”. Besides, the “mode of inhibition with respect to agonist NMDA and co-agonist glycine” value in assay [1] (fixed saturating dose of tanshinone (20 nM), increasing NMDA 100-1600 μM) is on record as “non-competitive inhibition”. Also, the “inhibition of the NMDA-induced currents” value in assay [1] (setting [9]) is on record as “strong, but readily reversible inhibition”. In addition, the “inhibition of currents activated by AMPA” value in assay [3] is 6±3%. In assay [4], the “block of currents activated by GABA” value amounted to 10±3%. Further, the “voltage-dependence of inhibition, NR2B containing receptors” value in assay [5] is reported as “voltage-independent”. Moreover, the “block … NR1/NR2D” value in assay [2] was determined as 61±11%. Also, in assay [2] (greatly reduced efficacy at positive potentials), the “voltage-dependence of inhibition, NR2D containing receptors” value was “voltage-dependent”.

Turning to `CC(C)C1=Cc2ccc3c(c2C(=O)C1=O)CCCC3(C)C` [miltirone], in assay [1] (setting [7]), the IC50 worked out at 2.1 nM. For the same compound, the “voltage-dependence of inhibition of NMDA-induced whole-cell currents” value in assay [1] (setting [8]) is “voltage-independent”. Also, in assay [1] (setting [9]), the “inhibition of the NMDA-induced currents” value was “strong, but readily reversible inhibition”. Further, in assay [2], the “block … NR1/NR2D” value worked out at 11±2%. Further, in assay [6], the “activity at central benzodiazepine receptors” value was “partial agonists”.

For the compound `C[C@H]1COC2=C1C(=O)C(=O)c1c2ccc2c1CCCC2(C)C` [cryptotanshinone], in assay [1] (read-out: IC50, steady-state block of NMDA-induced currents; 200 μM NMDA plus 10 μM glycine, absence of Mg2+; 95% confidence interval given in brackets), the IC50 came out at 1.7 nM. Besides, the “block … NR1/NR2D” value in assay [2] came out at 10±1%.

As to `Cc1coc2c1C(=O)C(=O)c1c-2ccc2c(C)cccc12` [tanshinone I], the IC50 in assay [1] (setting [7]) was 3.7 nM. For the same compound, the “voltage-dependence of inhibition of NMDA-induced whole-cell currents” value in assay [1] (setting [8]) is given as “voltage-independent”. The “inhibition of the NMDA-induced currents” value in assay [1] (setting [9]) was “strong, but readily reversible inhibition”. Also, the “block … NR1/NR2D” value in assay [2] stood at 4±1%.

The values are drawn from patent US20020077352A1, “N-methyl-D-aspartate receptor antagonists” (priority 2000, published 2002).
